In patent US9561228B2 (Celgene Avilomics Research, Inc., priority 2013, dated 2017):

Assays:
[1] = tested on: ERK1/2 phosphorylation of p90RSK in HT29 cells; assay: pRSK MSD Assay in HT29 cells; type: cell-based; conditions: Homo sapiens, HT-29, read-out: ERK1/ERK2 PRSK MSD HT29 EC50
Method in brief: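 Serum-starved HT29 cells (0.1% FBS overnight) treated with test compound for 120 min at 37° C, then lysed with protease and phosphatase inhibitors. Phospho-p90RSK quantified by MSD sandwich immunoassay: RSK capture antibody, phospho-RSK detection antibody plus Sulfo-tagged antibody, electrochemiluminescence read.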

[2] = tested on: ERK1/2 phosphorylation of p90RSK in HCT116 cells; assay: Detection of total and phospho-RSK by MSD ELISA (HCT116); type: cell-based; conditions: Homo sapiens, HCT-116, read-out: ERK1/ERK2 PRSK HCT116 EC50
Method in brief: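 HCT116 cells treated with compound in RPMI/10% FBS for 2 h at 37° C, then lysed. Phospho-RSK (Ser380) and total RSK in lysates measured by MSD sandwich electrochemiluminescence ELISA as a readout of ERK1/2 activity.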

Erk1 = biological target: T1, Erk1 (Homo sapiens, UniProt P27361); assay: Protein Mass Modification Assay (intact protein MALDI, 60 min, 10-fold excess of compound); type: binding
T1 construct: purchased Millipore 14-439
Method in brief: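 Human Erk1 was incubated 60 min at room temperature with a 10-fold molar excess of compound, then analysed as intact protein by MALDI with sinapinic acid matrix. The centroid mass shift versus untreated protein was divided by compound molecular weight to give percent modified protein.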

T1 sequence (P27361 whole entry): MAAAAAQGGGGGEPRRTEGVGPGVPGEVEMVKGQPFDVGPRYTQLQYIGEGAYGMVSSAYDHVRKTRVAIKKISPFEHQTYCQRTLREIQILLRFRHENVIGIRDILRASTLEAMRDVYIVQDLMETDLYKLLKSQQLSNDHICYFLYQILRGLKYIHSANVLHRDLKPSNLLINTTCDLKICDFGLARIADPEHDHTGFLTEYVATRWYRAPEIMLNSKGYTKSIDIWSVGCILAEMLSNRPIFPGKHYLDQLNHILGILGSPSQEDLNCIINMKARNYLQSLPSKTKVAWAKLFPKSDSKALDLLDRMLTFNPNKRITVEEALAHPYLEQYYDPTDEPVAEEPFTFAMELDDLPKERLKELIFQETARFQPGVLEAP

| SMILES | EC50 [1] | EC50 [2] | ERK1 Mass Mod (%) (Erk1) |
| --- | --- | --- | --- |
| C=CC(=O)Nc1cc(C)c(F)cc1Nc1nc(Nc2cc(OC)ncc2C)ncc1C(F)(F)F [Compound I-366, N-(4-fluoro-2-((2-((2-methoxy-5-methylpyridin-4-yl)amino)-5-(trifluoromethyl)pyrimidin-4-yl)amino)-5-methylphenyl)acrylamide] | > 1000 nM | > 1000 nM | E (a mass modification of ≧70%) |
| C=CC(=O)Nc1ccc(OCC(N)=O)cc1Nc1nc(NC2CCOCC2)ncc1C(F)(F)F [Compound I-395, N-(4-(2-amino-2-oxoethoxy)-2-((2-((tetrahydro-2H-pyran-4-yl)amino)-5-(trifluoromethyl)pyrimidin-4-yl)amino)phenyl)acrylamide] | > 1000 nM | > 1000 nM | E (a mass modification of ≧70%) |
| C=CC(=O)Nc1cc(C)ccc1Nc1nc(Nc2cc(P(C)(C)=O)ncc2C)ncc1C(F)(F)F [Compound I-343, N-(2-((2-((2-(dimethylphosphoryl)-5-methylpyridin-4-yl)amino)-5-(trifluoromethyl)pyrimidin-4-yl)amino)-5-methylphenyl)acrylamide] | 101 to 500 nM | 101 to 500 nM | F (a mass modification of 31-69%) |
| C=CC(=O)Nc1cc(C)ccc1Nc1nc(Nc2cc(NCCOC)nc(OC)c2)ncc1C(F)(F)F [Compound I-294, N-(2-((2-((2-methoxy-6-((2-methoxyethyl)amino)pyridin-4-yl)amino)-5-(trifluoromethyl)pyrimidin-4-yl)amino)-5-methylphenyl)acrylamide] | < 100 nM | < 100 nM | E (a mass modification of ≧70%) |
| C#CC(=O)Nc1cc(C)ccc1Nc1nc(Nc2cc(OC)ncc2C)ncc1C(F)(F)F [Compound I-345, N-(2-((2-((2-methoxy-5-methylpyridin-4-yl)amino)-5-(trifluoromethyl)pyrimidin-4-yl)amino)-5-methylphenyl)propiolamide] | > 1000 nM | > 1000 nM | E (a mass modification of ≧70%) |
| C=CC(=O)Nc1cc(C)ccc1Nc1nc(NC2CCC(=O)NC2)ncc1C(F)(F)F (racemic) [Compound I-368, Rac-N-(5-methyl-2-((2-((6-oxopiperidin-3-yl)amino)-5-(trifluoromethyl)pyrimidin-4-yl)amino)phenyl)acrylamide] | 501 to 999 nM | 101 to 500 nM | E (a mass modification of ≧70%) |
| C=CC(=O)Nc1cc(C)ccc1Nc1nc(Nc2nc(OC)nc(OC)n2)ncc1C(F)(F)F [Compound I-371, N-(2-((2-((4,6-dimethoxy-1,3,5-triazin-2-yl)amino)-5-(trifluoromethyl)pyrimidin-4-yl)amino)-5-methylphenyl)acrylamide] | 101 to 500 nM | > 1000 nM | F (a mass modification of 31-69%) |
| C=CC(=O)Nc1cc(C)ccc1Nc1nc(Nc2cc(OC(C)C)ncc2C)ncc1C(F)(F)F [Compound I-369, N-(2-((2-((2-isopropoxy-5-methylpyridin-4-yl)amino)-5-(trifluoromethyl)pyrimidin-4-yl)amino)-5-methylphenyl)acrylamide] | > 1000 nM | > 1000 nM | F (a mass modification of 31-69%) |
| C=CC(=O)Nc1cc(OCC(N)=O)ccc1Nc1nc(Nc2cc(OC)ncc2C)ncc1C(F)(F)F [Compound I-398, N-(5-(2-amino-2-oxoethoxy)-2-((2-((2-methoxy-5-methylpyridin-4-yl)amino)-5-(trifluoromethyl)pyrimidin-4-yl)amino)phenyl)acrylamide] | < 100 nM | < 100 nM | E (a mass modification of ≧70%) |
| C=CC(=O)Nc1cc(CN2CCN(C(=O)c3cnccn3)CC2)ccc1Nc1nc(Nc2nc(OC)ncc2C)ncc1C(F)(F)F [Compound I-393, N-(2-((2-((2-methoxy-5-methylpyrimidin-4-yl)amino)-5-(trifluoromethyl)pyrimidin-4-yl)amino)-5-((4-(pyrazine-2-carbonyl)piperazin-1-yl)methyl)phenyl)acrylamide] | 501 to 999 nM | 501 to 999 nM | E (a mass modification of ≧70%) |
| C=CC(=O)Nc1cc(C(=O)N2CCN(S(C)(=O)=O)CC2)ccc1Nc1nc(Nc2cc(OC)ncc2C)ncc1C(F)(F)F [Compound I-401, N-(2-((2-((2-methoxy-5-methylpyridin-4-yl)amino)-5-(trifluoromethyl)pyrimidin-4-yl)amino)-5-(4-(methylsulfonyl)piperazine-1-carbonyl)phenyl)acrylamide] | 101 to 500 nM | 101 to 500 nM | E (a mass modification of ≧70%) |
| C=CC(=O)Nc1cc(C)ccc1Nc1nc(Nc2cc(OC)cnc2Cl)ncc1C(F)(F)F [Compound I-361, N-(2-((2-((2-chloro-5-methoxypyridin-3-yl)amino)-5-(trifluoromethyl)pyrimidin-4-yl)amino)-5-methylphenyl)acrylamide] | < 100 nM | 101 to 500 nM | E (a mass modification of ≧70%) |
| C=CC(=O)Nc1cc(C)ccc1Nc1nc(Nc2cc(OC)nnc2OC)ncc1C(F)(F)F [Compound I-372, N-(2-((2-((3,6-dimethoxypyridazin-4-yl)amino)-5-(trifluoromethyl)pyrimidin-4-yl)amino)-5-methylphenyl)acrylamide] | < 100 nM | 101 to 500 nM | F (a mass modification of 31-69%) |
| C=CC(=O)Nc1cc(C)ccc1Nc1nc(Nc2cc(OCC)ncc2C)ncc1C(F)(F)F [Compound I-358, N-(2-((2-((2-ethoxy-5-methylpyridin-4-yl)amino)-5-(trifluoromethyl)pyrimidin-4-yl)amino)-5-methylphenyl)acrylamide] | 101 to 500 nM | 501 to 999 nM | E (a mass modification of ≧70%) |
| C=CC(=O)Nc1cc(CN2CCN(C(=O)c3cccnc3)CC2)ccc1Nc1nc(Nc2cc(OC)ncc2C)ncc1C(F)(F)F [Compound I-389, N-(2-((2-((2-methoxy-5-methylpyridin-4-yl)amino)-5-(trifluoromethyl)pyrimidin-4-yl)amino)-5-((4-nicotinoylpiperazin-1-yl)methyl)phenyl)acrylamide] | < 100 nM | < 100 nM | E (a mass modification of ≧70%) |
| C=CC(=O)Nc1cc(C)ccc1Nc1nc(Nc2ncc(F)c(OC)n2)ncc1C(F)(F)F [Compound I-356, N-(2-((2-((5-fluoro-4-methoxypyrimidin-2-yl)amino)-5-(trifluoromethyl)pyrimidin-4-yl)amino)-5-methylphenyl)acrylamide] | 101 to 500 nM | 501 to 999 nM | E (a mass modification of ≧70%) |
| C=CC(=O)Nc1cc(C)ccc1Nc1nc(Nc2cc(N[C@H]3CC[C@](C)(O)CC3)nc(OC)c2)ncc1C(F)(F)F [Compound I-327, N-(2-((2-((2-((trans-4-hydroxy-4-methylcyclohexyl)amino)-6-methoxypyridin-4-yl)amino)-5-(trifluoromethyl)pyrimidin-4-yl)amino)-5-methylphenyl)acrylamide] | – | < 100 nM | E (a mass modification of ≧70%) |
| C=CC(=O)Nc1cc(C)ccc1Nc1nc(Nc2nc(OC)ncc2Cl)ncc1C(F)(F)F [Compound I-344, N-(2-((2-((5-chloro-2-methoxypyrimidin-4-yl)amino)-5-(trifluoromethyl)pyrimidin-4-yl)amino)-5-methylphenyl)acrylamide] | – | 101 to 500 nM | E (a mass modification of ≧70%) |
